Measured values published in publication PMC10709440, “High-throughput ligand profile characterization in novel cell lines expressing seven heterologous insect olfactory receptors for the detection of volatile plant biomarkers” (Scientific Reports, 2023).

How the values were obtained:
Assay in all cases: cell-based
Set-up in all cases: GCaMP6 calcium fluorescence in stable HEK293 OR+ORCO lines; peak dF normalised to 50 uM VUAA1 (=1)
Drosophila OR85b = molecular target: T1, Drosophila OR85b (Drosophila melanogaster, UniProt Q9VHQ7); conditions: relative to 50 uM VUAA1 response, below 0.05 set to 0; for activity at 1 µM / activity at 10 µM / activity at 100 µM: HEK293, read-out: % activation; for % activation: agonist
T1 construct: expressed in transfected cells
T1 sequence (Q9VHQ7 1-390): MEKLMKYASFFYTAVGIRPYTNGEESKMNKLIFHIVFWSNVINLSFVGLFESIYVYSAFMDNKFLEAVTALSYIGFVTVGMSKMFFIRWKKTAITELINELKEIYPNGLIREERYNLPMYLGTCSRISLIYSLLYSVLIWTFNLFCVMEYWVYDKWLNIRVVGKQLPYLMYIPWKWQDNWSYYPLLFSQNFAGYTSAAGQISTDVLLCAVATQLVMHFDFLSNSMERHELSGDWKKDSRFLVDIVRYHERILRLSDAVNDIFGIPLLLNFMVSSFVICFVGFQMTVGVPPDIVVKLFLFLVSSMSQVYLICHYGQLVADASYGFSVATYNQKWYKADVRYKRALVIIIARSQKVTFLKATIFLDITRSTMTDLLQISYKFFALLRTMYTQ
T1 sequence (Q9VNB5 1-486 partner): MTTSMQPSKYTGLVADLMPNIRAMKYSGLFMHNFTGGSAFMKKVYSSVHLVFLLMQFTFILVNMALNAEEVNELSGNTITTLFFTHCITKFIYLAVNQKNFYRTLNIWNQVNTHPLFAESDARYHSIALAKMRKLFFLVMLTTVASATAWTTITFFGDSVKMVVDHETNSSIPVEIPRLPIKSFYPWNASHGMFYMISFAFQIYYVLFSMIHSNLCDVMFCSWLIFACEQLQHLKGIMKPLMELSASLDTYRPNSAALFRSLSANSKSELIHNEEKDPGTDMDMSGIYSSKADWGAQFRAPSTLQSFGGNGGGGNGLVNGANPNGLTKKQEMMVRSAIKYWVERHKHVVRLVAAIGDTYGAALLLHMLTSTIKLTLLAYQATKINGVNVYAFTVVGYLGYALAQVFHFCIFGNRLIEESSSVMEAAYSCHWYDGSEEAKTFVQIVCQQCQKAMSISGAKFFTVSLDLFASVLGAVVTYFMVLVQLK
Experimental: (§1) Twelve thousand to 18,000 cells were plated into each well of a black wall, transparent bottom 384-well microplate (Greiner) 48 h or 72 h before the measurements and were simultaneously treated with 1 μg/mL doxycycline. […] The plate has 24 columns, thus we could record responses in up to eight different cell lines in each plate. On the day of the experiment, the growth medium was replaced with 20 µL assay buffer/well (140 mM NaCl, 5 mM KCl, 2 mM CaCl2, 1 mM MgCl2, 5 mM HEPES-Na, 20 mM glucose, pH 7.3, 340 mOsm). […] Baseline fluorescence (F0) was recorded for 5 s, after which 7 µL VOC buffer (140 mM NaCl, 5 mM KCl, 2 mM CaCl2, 1 mM MgCl2, 5 mM HEPES-Na, 31 mM glucose, 0.1% DMSO, pH 7.3, 340 mOsm) was injected into each well in one row and the fluorescence response was recorded for an additional 30 s, at a rate of one read/sec. VOC solutions (VOC buffer with 4× concentration of the final measured VOC concentration, 9 µL/well was injected) were measured on the same wells in a second round with the same protocol. Each individual concentration of a specific VOC sample was recorded in three wells for the same cell line on the same microplate. The raw data were exported in xls file format, F0 and FMAX values, and the fluorescence intensity changes (∆F) were calculated in Excel (Microsoft) (Supplementary file Data summary.xlsx) using the following equation: ΔF=FMAX-F0/F0 (see also Fig. 1C). On each plate, we recorded the response of each cell line to 50 µM VUAA1. The average of these ∆F values of each cell line were used to calculate the VUAA1-normalized values for the rest of the plate, by dividing VOC response ∆F values by the average VUAA1 response ∆F value of the corresponding OR cell line. Each VOC-OR combination was measured three times as tec The recorded FMAX, F0, ∆F, VUAA1-normalized ∆F values, as well as the OR name, the name of the tested sample, and the final concentration for each well were copied into supplementary file Data summary.xlsx, that was used to summarize all the plates recorded. Here, the averages of the measurements were calculated for each receptor-VOC-concentration combination. […] Each VOC was measured at 1, 10, and 100 µM final concentration on each receptor. VUAA1-normalized response was calculated as described in methods.

Drosophila OR71a = molecular target: T2, Drosophila OR71a (Drosophila melanogaster, UniProt Q9VUK5); conditions: HEK293; relative to 50 uM VUAA1 response; below 0.05 set to 0; read-out: % activation
T2 construct: expressed in transfected cells
T2 sequence (Q9VUK5 1-378): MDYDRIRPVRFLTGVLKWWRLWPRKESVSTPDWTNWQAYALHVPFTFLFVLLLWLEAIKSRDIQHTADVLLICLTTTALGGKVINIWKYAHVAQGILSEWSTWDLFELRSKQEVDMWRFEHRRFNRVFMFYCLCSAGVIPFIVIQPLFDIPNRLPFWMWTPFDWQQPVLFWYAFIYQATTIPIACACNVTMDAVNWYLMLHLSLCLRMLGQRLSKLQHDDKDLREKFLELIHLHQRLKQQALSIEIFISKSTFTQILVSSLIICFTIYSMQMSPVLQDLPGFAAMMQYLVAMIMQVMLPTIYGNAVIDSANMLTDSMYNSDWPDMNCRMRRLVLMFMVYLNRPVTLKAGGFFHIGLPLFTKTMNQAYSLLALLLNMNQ
T2 sequence (Q9VNB5 1-486 partner): T1 sequence (Q9VNB5 1-486 partner)
Experimental: as §1

Drosophila OR47a = molecular target: T3, Drosophila OR47a (Drosophila melanogaster, UniProt P81921); conditions: relative to 50 uM VUAA1 response, below 0.05 set to 0; for activity at 1 µM / activity at 10 µM / activity at 100 µM: HEK293, read-out: % activation; for % activation: 10 µM, agonist, 10 / OR47a
T3 construct: expressed in transfected cells
T3 sequence (P81921 1-385): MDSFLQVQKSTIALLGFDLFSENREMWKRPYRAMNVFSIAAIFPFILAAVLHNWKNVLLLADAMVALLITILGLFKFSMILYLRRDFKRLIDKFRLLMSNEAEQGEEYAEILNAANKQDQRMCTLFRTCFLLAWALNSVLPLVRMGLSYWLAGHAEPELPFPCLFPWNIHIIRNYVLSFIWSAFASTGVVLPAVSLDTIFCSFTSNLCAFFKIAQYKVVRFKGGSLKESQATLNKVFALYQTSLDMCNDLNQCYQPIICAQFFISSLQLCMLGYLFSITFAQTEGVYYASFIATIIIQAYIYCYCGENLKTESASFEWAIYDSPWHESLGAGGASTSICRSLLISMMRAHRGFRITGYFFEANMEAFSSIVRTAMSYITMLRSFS
T3 sequence (Q9VNB5 1-486 partner): T1 sequence (Q9VNB5 1-486 partner)
Experimental: as §1

Compound | activity at 1 µM (Drosophila OR85b) [%] | activity at 10 µM (Drosophila OR85b) [%] | activity at 100 µM (Drosophila OR85b) [%] | activity at 100 µM (Drosophila OR71a) [%] | activity at 100 µM (Drosophila OR47a) [%] | further results
C=C(C)C1CCC2(C)OC2C1 (single isomer, unassigned; (+)) [(+)-limonene oxide] | 0 | 0 | 0 | 0 | 0 | activity at 1 µM (Drosophila OR71a): 0%; activity at 10 µM (Drosophila OR71a): 0%; activity at 1 µM (Drosophila OR47a): 0%; activity at 10 µM (Drosophila OR47a): 0%
C=C1CC[C@@]23C[C@@H]1C(C)(C)[C@@H]2CC[C@H]3C [(+)-beta-cedrene] | 0 | 0 | 0 | 0 | 0 | activity at 1 µM (Drosophila OR71a): 0%; activity at 10 µM (Drosophila OR71a): 0%; activity at 1 µM (Drosophila OR47a): 0%; activity at 10 µM (Drosophila OR47a): 0%
C=C1[C@H]2CC[C@@H]3[C@H]2C(C)(C)CCC[C@]13C [(+)-longifolene] | 8.34 | 10.9 | 0 | 0 | 0 | activity at 1 µM (Drosophila OR71a): 0%; activity at 10 µM (Drosophila OR71a): 0%; activity at 1 µM (Drosophila OR47a): 0%; activity at 10 µM (Drosophila OR47a): 0%
C=C(C)[C@H]1CC=C(C)CC1 [(R)-(+)-limonene] |  |  |  | 0 | 0 | % activation (Drosophila OR85b; 10 µM, 10 / OR85b): 0%; % activation (Drosophila OR85b; 100 µM, 100 / OR85b): 0%; % activation (Drosophila OR85b; 1 / OR85b, 1 µM): 0%; activity at 1 µM (Drosophila OR71a): 0%; activity at 10 µM (Drosophila OR71a): 0%; activity at 1 µM (Drosophila OR47a): 0%; % activation (Drosophila OR47a): 0.05286%
CC/C=C\CCOC(C)=O [Z-3-hexenyl acetate] | 14.5 |  |  |  |  | 
C=C(C)[C@H]1CC=C(C)CC1 [limonene] |  |  |  |  |  | % activation (Drosophila OR85b; 10 µM, 10 / OR85b): 0.08814%; % activation (Drosophila OR85b; 100 µM, 100 / OR85b): 0.06443%; % activation (Drosophila OR85b; 1 / OR85b, 1 µM): 0.07022%; % activation (Drosophila OR47a): 0%
C=CC(C)(O)CCC=C(C)C (stereo not shown) [linalool] |  |  | 6.3 |  |  | 
Cc1cccc(C)c1 [m-xylene] |  |  | 8.8 |  |  | 
COC(=O)c1ccccc1 [methyl benzoate] |  |  |  |  | 5.95 | 
COC(=O)c1ccccc1O [methyl salicylate] |  |  |  | 11.5 |  | 
Cc1ccccc1C [o-xylene] | 8.04 |  | 8.27 |  |  | 
Cc1ccc(C(C)C)cc1 [p-cymene] |  | 11.7 | 9.05 |  |  | 
Cc1ccc(C)cc1 [p-xylene] |  | 15.2 | 6.07 |  |  | activity at 10 µM (Drosophila OR71a): 6.15%
CCCCCOC(C)=O [pentyl acetate] |  |  |  | 8.7 |  | 
OCCc1ccccc1 [phenethyl alcohol] | 9.88 | 7.58 |  |  | 5.7 | activity at 1 µM (Drosophila OR71a): 8.62%; activity at 1 µM (Drosophila OR47a): 5.64%; activity at 10 µM (Drosophila OR47a): 6.44%
CCCOC(C)=O [propyl acetate] | 5.38 |  |  |  |  | 
C=C1CCC2(C(C)C)CC12 (stereo not shown) [sabinene] | 6.47 |  | 8.7 |  |  | 
CCCCCCCCCCCCCC [tetradecane] | 9.72 | 8.44 |  |  |  | 
